Tests used:
[1] = Estimated EC99 used for PK/PD (parasite not stated); conditions: free blood level threshold
Source text: Given promising in vivo efficacy data in mice (Table 1), compound 1 was progressed into cattle pharmacokinetic studies, dosing both IV and IM (Table 2, Figure S2, and Table S4). […] This low bioavailability was likely a consequence of poor compound release from the injection site following IM administration in cattle due to the low solubility of compound 1, probably leading to compound accumulation and precipitation at the injection site.

[2] = test system: T. congolense (KONT2/133); assay: Cattle efficacy for compound 2, intravenous infusion (Clinvet), T. congolense; type: in vivo, Trypanosoma congolense; conditions: Friesian-Holstein cattle infected with T. congolense; n = 4; at 100 days
Protocol: Unfortunately, an injection site tolerability issue arose during the pharmacokinetic study in cattle that was not evident in rats. […] To circumvent these issues, compound 2 was assessed in an in vivo proof of concept efficacy study in Friesian-Holstein cattle using an IV infusion regimen. The study was conducted in four animals infected with T. congolense (KONT2/133) and four animals infected with T. vivax (STIB719). Three additional animals infected with each strain formed the vehicle control groups and were dosed IV once daily with saline. Pharmacokinetic modeling was used to define a dosing regimen that mimics the blood concentration–time profile that delivered cure in mice (10 mg/kg SC once daily for 2 days, with a Ctrough of >20 ng/mL (>38 nM)). A continuous infusion over 36 h and two loading doses 24 h apart were required. […]
Response to treatment was determined by monitoring parasitaemia twice a week until day 21. […]
In each of the cattle efficacy studies (3.3, 3.4 and 3.5), efficacy was assessed primarily on absence of recrudescence of parasitaemia for 100 days after treatment administration together with improvements in Packed Cell Volume, body weight and clinical signs of infected compared with uninfected animals. […]

Row | Compound | estimated EC99 [1] [ng/mL] | Efficacy in cattle, IV bolus and infusion [2]
1 | CC(C)CS(=O)(=O)N[C@H]1CC[C@H](Nc2nc(N)c(C(=O)c3c(F)cccc3F)s2)CC1 [Compound 1, N-((trans)-4-((4-Amino-5-(2,6-difluorobenzoyl)thiazol-2-yl)amino)cyclohexyl)-2-methylpropane-1-sulfonamide] | 1.6 | –
2 | CC(C)CS(=O)(=O)N[C@H]1CC[C@H](Nc2nc(N)c(C(=O)c3c(F)cc(CN(C)C)cc3F)s2)CC1 [Compound 2, N-(trans)-[4-[[4-Amino-5-[4-(dimethylaminomethyl)-2,6-difluoro-benzoyl]thiazol-2-yl]amino]cyclohexyl]-2-methyl-propane-1-sulfonamide] | – | cured

Source: paper PMC9014415, “Repositioning of a Diaminothiazole Series Confirmed to Target the Cyclin-Dependent Kinase CRK12 for Use in the Treatment of African Animal Trypanosomiasis” (Journal of Medicinal Chemistry, 2022)
